Measurements: US10111880B2, “Compounds for the treatment of diabetes and disease complications arising from same” (BEN-GURION UNIVERSITY OF THE NEGEV RESEARCH AND DEVELOPMENT …, priority 2013, dated 2018)

How the values were obtained:
Assay type in all cases: in vivo, mouse
[1] = test system: STZ-induced diabetic ICR mice; assay: Blood glucose in STZ-induced diabetic ICR mice, long-term AGS treatment (5 months) with or without insulin; parameters: Blood Glucose At 101 day / Blood Glucose At 111 day: unit: mg/dL; conditions: for circulating glucose levels in diabetic animals: summary statement
Method: [0182]7 week-old female ICR mice were intra-peritoneally injected with STZ (40 mg\Kg) for 5 consecutive days. Non-diabetic mice received citrate buffer (pH 4.3, cold), which served as the vehicle controls for this study. AGS-500 (6 mg\Kg) was then administered subcutaneously every 2 days, for 5 months, on the first day after STZ administration. A further control group, where DMSO was administered in accordance with this regimen, was included. Mice were divided into the following 6 groups (10 mice per group except STZ only-5 mice): • STZ only • STZ+DMSO • Citrate+DMSO 1% every day • STZ+AGS-499 (6 mg/kg) injected every day S.C • STZ+AGS-500 (6 mg/kg) injected every day S.C • STZ+AGS-500 (6 mg/kg) injected every other day S.C Mice were weighed and blood glucose levels were measured using a free style glucometer. Food consumption was also measured 24 hours prior to STZ injection. The concentration of STZ to be injected was calculated. STZ at 40 mg/kg was injected ip for 5 consecutive days. AGS treatment was administered one day following the last STZ injection. The establishment of diabetes was validated by the assessment of blood glucose levels performed every 3 days (at the beginning) and once a week after 59 days from the initiation of the experiment. Blood glucose levels over 200 mg/dl (measured 3 consecutive times) indicated a diabetic state. At 80 days from the initiation of the experiments each group was divided to 2 subgroups which received either insulin (4 units/kg) or acetic acid (0.015%) both in HEPES buffer (pH 7.45) injected every 48 hours. Mice were sacrificed after 5 months from the initiation of the experiments. Blood glucose levels were monitored every 3 days. Ten weeks after the beginning of this study, each group was divided into 2 sub-groups, one of each also received insulin (4 U\Kg) every 2 days, except for the non-diabetic sub-groups. Acetic acid (1%) served as the vehicle control.

[2] = test system: STZ-induced diabetic ICR mice; assay: Glucose Tolerance Test (GTT) in STZ diabetic mice after 2 and 5 months; conditions: daily
Method: Glucose Tolerance Test: Animals were fasted for 12 hr with free access to water. Blood-glucose levels after fast were measured and then the animals received an i.p. injection of glucose (1.5 g/kg). Blood samples were taken at several intervals (for the duration of 2 hr), when glucose levels above 200 mg/dl at 2 hr confirmed a diagnosis of diabetes.
[…] Mice were subjected to 12 hours fast (with water) weighed, blood glucose level was measured and Glucose at 1.5 gr/kg in no more than 100 μl was injected IP. Blood glucose levels were measured at 10, 20, 30, 60, 90 and 120 min after glucose injection. glucose tolerance test.

[3] = test system: insulin expressing beta islets; assay: Immunofluorescence of pancreatic slices with anti-insulin antibody, insulin expressing beta islets in mice; conditions: for pancreatic beta cell mass: summary statement
Method: The light grey (originally red) stains insulin producing cells, and the darker grey (originally blue) is for DAPI staining. Density of insulin staining per area was measured using “Image J” software (D-E). The results are mean±S.E.; n=4. ***p<0.005. Magnification: ×10.

[4] = test system: STZ-induced diabetic ICR mice; assay: Blood glucose over time in STZ mice, short course (2 weeks) AGS treatment with or without insulin
Method: (§1) Eight weeks-old female ICR mice were injected intraperitoneally (IP) with Streptozotocin (STZ), at a dose of 40 mg/Kg, for 5 consecutive days. The following day and onward, mice were administered the AGS compounds (499 or 500, as indicated), at a dose of 6 mg/Kg, either subcutaneously or orally, every other day. Blood glucose levels were monitored daily.
(§2) After the establishment of diabetes (i.e. three consecutive blood glucose measurements of >200 mg/dL), mouse groups were further sub-divided into 2 sub-groups, one of each received insulin (gradual administration of 0.5-6 units/Kg, over a period of 2 weeks) subcutaneously, every other day. Blood glucose levels were monitored daily.

[5] = test system: STZ-induced diabetic ICR mice; assay: Glucose tolerance test in STZ mice after short course (2 weeks) AGS treatment
Method: as §1, §2
Glucose tolerance tests were also performed as follows: After two weeks mice were fasted for 12 hours, then injected with D-glucose (1.5 g/Kg, IP) and blood glucose levels were examined at 0, 10, 20, 30, 60, 90 and 120 minutes, in order to evaluate pancreatic function.

[6] = test system: STZ-induced diabetic mice, kidney glomeruli; assay: Kidney histopathology (PAS staining of glomeruli) in STZ diabetic mice; conditions: summary statement
Method: Mice were treated as described hereinabove. Following one month of treatment mice were sacrificed and histolopathological examination of the kidney was performed.
FIG. 9 plots the evaluation of a number of parameters assessed via the histopathology analysis.

Molecule: CCOCc1cc(C(C)(c2cc(COCC)c(O)c(COCC)c2)c2cc(COCC)c(O)c(COCC)c2)cc(COCC)c1O [AGS-499, 1,1,1,1-tris (4-hydroxy-3,5-methylene ethoxy-phenyl)-ethane]
- % reduction in blood glucose level ([1]; after 12 hours fast, day 142, 6 mg/kg s.c. daily): 20%
- Blood glucose level Average ([1]; after 12 hours fast, day 142, 6 mg/kg s.c. daily, in mg/dL (unit assumed)): 317
- % reduction In blood Glucose 101 day ([1]; no insulin, daily): 29%
- Blood Glucose At 101 day ([1]; no insulin, daily): 500
- Blood Glucose At 111 day ([1]; no insulin, daily): 500
- reduction In blood Glucose 111 day ([1]; no insulin, daily): 17%
- Blood Glucose At 101 day ([1]; with insulin (4 units/kg every 48 hours), AGS daily): 480
- % reduction In blood Glucose 101 day ([1]; with insulin, AGS daily): 32%
- Blood Glucose At 111 day ([1]; with insulin, AGS daily): 400
- reduction In blood Glucose 111 day ([1]; with insulin, AGS daily): 34%
- Improvement (fold) ([2]; GTT after 2 months): 3 fold
- Fold of Improvement ([2]; GTT after 5 months): 3 fold
- Time needed for the Pancreas to cope glucose load after 5 months ([2]; GTT): 30 min
- Time needed for the Pancreas to cope with glucose load after 2 months ([2]; GTT): 30 min
- No of insulin expressing beta islets/mouse ([3]; no insulin, daily): 4.3
- increase in Insulin expressing Beta islets ([3]; no insulin, daily): 165%
- No of insulin expressing beta islets/mouse ([3]; with insulin, AGS daily): 3.5
- increase in Insulin expressing Beta islets ([3]; with insulin, AGS daily): 135%
- circulating glucose levels over time ([4]; 6 mg/Kg every other day, short course (2 weeks), FIG. 13-1): lowering circulating glucose levels significantly
- circulating glucose levels over time, combined with insulin therapy ([4]; short course, insulin 0.5-6 units/Kg, FIG. 13-2): synergistic contribution
- mean blood glucose levels in a glucose tolerance test ([5]; 6 mg/Kg subcutaneously or orally every other day, FIG. 11): reduced mean blood glucose levels
- effect of adding insulin on circulating glucose levels in a glucose tolerance test ([5]; AGS subcutaneously (AGS500 also orally), FIG. 12): adding insulin did not appreciably lower the circulating levels

Molecule: CCOCc1cc(C(C)(c2cc(COCC)c(O)c(COCC)c2)c2cc(COCC)c(O)c(COCC)c2)cc(COCC)c1O [formula XIII]
- circulating glucose levels in diabetic animals [1]: promoted reduction of circulating glucose levels
- pancreatic beta cell mass [3]: increase of pancreatic beta cell mass
- kidney damage in diabetic subjects [6]: reduced kidney damage

Molecule: CC(c1cc(Br)c(O)c(Br)c1)(c1cc(Br)c(O)c(Br)c1)c1cc(Br)c(O)c(Br)c1 [formula XIV]
- circulating glucose levels in diabetic animals [1]: promoted reduction of circulating glucose levels
- pancreatic beta cell mass [3]: increase of pancreatic beta cell mass
- kidney damage in diabetic subjects [6]: reduced kidney damage

Molecule: CC(c1cc(CN2CCCC2)c(O)c(CN2CCCC2)c1)(c1cc(CN2CCCC2)c(O)c(CN2CCCC2)c1)c1cc(CN2CCCC2)c(O)c(CN2CCCC2)c1 [formula XI]
- circulating glucose levels in diabetic animals [1]: promoted reduction of circulating glucose levels
- pancreatic beta cell mass [3]: increase of pancreatic beta cell mass
- kidney damage in diabetic subjects [6]: reduced kidney damage

Molecule: insulin: insulin (4 units/kg) in HEPES buffer injected every 48 hours [reference compound]
- circulating glucose levels in control groups ([1]; insulin 4 U/Kg every 2 days, STZ-induced diabetic mice, FIG. 2C): lowered circulating glucose levels in control groups
- Blood Glucose At 101 day ([1]; insulin only (4 units/kg every 48 hours), STZ or STZ + vehicle groups): 700
- Blood Glucose At 111 day ([1]; insulin only, STZ or STZ + vehicle groups): 600
- No of insulin expressing beta islets/mouse ([3]; insulin alone (STZ, DMSO)): 3.25
- increase in Insulin expressing Beta islets ([3]; insulin alone (STZ, DMSO)): 125%
